US6559167B1, “Prodrugs of proton pump inhibitors” (Regents of the University of California, priority 1998, dated 2003)
Where “and” joins values, the source holds several entries; their conditions need not be identical. Equal entries are not always repeated.

Experiments:
[1] = Solubility in aqueous buffer; format: physicochemical
[2] = target: T1, gastric H,K-ATPase (Sus scrofa, UniProt P19156); assay: Inhibition of ATPase activity using isolated hog gastric vesicles; format: biochemical; conditions: for inhibition of enzyme activity after 80 minutes: after 80 minutes at pH 7.4, 37° C.; for inhibition of gastric H,K-ATPase activity initially (before hydrolysis): 10, 20, 50, and 100 μM, pH 7.4, 37° C.
T1 construct: from tissue; host or cells: hog gastric vesicles (stomach mucosa)
T1 sequence (P19156 2-1034 limits assumed): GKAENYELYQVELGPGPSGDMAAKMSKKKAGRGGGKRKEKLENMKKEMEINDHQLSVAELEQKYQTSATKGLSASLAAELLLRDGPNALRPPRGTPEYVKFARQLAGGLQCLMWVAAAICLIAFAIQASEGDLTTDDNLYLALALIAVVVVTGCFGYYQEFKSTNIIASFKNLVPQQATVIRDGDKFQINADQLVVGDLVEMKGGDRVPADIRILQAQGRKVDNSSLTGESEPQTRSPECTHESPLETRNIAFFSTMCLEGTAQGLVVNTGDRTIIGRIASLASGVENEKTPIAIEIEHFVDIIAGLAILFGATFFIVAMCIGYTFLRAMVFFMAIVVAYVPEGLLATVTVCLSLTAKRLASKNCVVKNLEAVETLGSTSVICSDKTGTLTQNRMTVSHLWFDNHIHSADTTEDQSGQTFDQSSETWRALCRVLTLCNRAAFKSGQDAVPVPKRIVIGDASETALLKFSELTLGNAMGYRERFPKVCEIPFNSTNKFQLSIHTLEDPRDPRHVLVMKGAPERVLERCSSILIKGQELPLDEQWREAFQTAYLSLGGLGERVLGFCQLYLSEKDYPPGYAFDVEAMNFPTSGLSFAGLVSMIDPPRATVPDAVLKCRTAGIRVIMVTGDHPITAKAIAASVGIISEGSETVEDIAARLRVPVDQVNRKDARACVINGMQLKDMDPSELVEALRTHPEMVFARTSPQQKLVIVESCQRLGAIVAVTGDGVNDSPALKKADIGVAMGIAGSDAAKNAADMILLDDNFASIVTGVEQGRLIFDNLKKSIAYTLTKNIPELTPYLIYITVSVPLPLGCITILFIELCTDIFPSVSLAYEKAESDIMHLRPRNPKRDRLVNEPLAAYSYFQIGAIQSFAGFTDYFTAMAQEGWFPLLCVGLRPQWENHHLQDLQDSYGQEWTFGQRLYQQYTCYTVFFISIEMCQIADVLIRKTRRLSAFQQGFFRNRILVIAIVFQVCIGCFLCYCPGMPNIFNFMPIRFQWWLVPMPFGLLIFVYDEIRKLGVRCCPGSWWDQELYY
T1 sequence (P18434 whole entry partner): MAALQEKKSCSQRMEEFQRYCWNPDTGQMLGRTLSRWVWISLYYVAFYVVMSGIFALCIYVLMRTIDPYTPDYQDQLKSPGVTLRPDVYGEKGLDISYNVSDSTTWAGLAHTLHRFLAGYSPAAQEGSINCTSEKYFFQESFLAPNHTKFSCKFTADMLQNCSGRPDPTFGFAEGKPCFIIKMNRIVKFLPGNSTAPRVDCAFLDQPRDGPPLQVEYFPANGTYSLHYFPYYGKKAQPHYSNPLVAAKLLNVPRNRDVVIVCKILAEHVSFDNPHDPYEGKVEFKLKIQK
From the text: By way of concrete examples, the following tests and results are described. […] This is consistent with the knowledge that the compounds obtained by hydrolysis e. g. LANSOPRAZOLE, OMEPRAZOLE, PANTOPRAZOLE and RABEPRAZOLE are well known H,K-ATPase inhibitors. […] Another good example is 2-(2-carbamoylmethoxy-4-{2-[4-(3-methoxypropoxy)-3-methyl pyridin-2-yl methylsulfinyl]benzimidazole-1-sulfonyl}phenoxy)acetamide. The half life of this compound dependes on pH. […] Based on these measured characteristics the compound 2-(2-carbamoylmethoxy-4-{2-[4-(3-methoxypropoxy)-3-methyl pyridin-2-yl methylsulfinyl]benzimidazole-1-sulfonyl}phenoxy)acetamide is expected to be well absorbed, and slowly release the parent RABEPRAZOLE in the blood, resulting in long-lasting in vivo activity. This compound can also be administered intravenously in an aqueous solution at pH 7.4 which solution may include 2-hydroxypropyl-β-cyclodextrin.
Inhibition of ATPase activity was measured using isolated hog gastric vesicles. The gastric H,K-ATPase (10 μg) was incubated at 37° C. in a solution (1 ml) composed of 0.25M sucrose, 20 mM Pipes/Tris, pH 7.4, 0.15M KCl, 2 mM MgCl2, valinomycin 2 μg/ml, and various concentration of compounds of the invention. At timed intervals, ATP was added (up to 2 mM) and incubated for 15 minutes and amount of released phosphate ion was measured. As a control experiment the prior art drug without a labile group on the benzimidazole nitrogen (e. g. OMEPRAZOLE or LANSOPRAZOLE) was used for measuring inhibition of enzyme activity.

[3] = Acid stability in 95% methanol containing 0.1N HCl; format: physicochemical; conditions: after 2.25 hour in 95% methanol containing 0.1N HCl
Method: Acid stability of the compounds was assayed in 95% methanol containing 0.1N HCl. Approximately 90% of the compound of Example 1 was still present intact (without decomposition) after 2.25 hour in this solution.

[4] = Relative plasma concentration of OMEPRAZOLE in male rat after oral administration; conditions: for Relative concentration of OMEPRAZOLE released in the plasma: male rat, examples 2 mg/kg, OMEPRAZOLE 4 mg/kg;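 as to all read-outs here: Sprague-Dawley rats fasted one day with water available, dosed orally with prodrug compounds, OMEPRAZOLE quantified by HPLC in plasma from serial blood draws, control given OMEPRAZOLE itself orally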
Method: Male adult rats of the Sprague-Dawley strain were used for determining the concentration of OMEPRAZOLE in the plasma. All rats were derived of food but not of water for one day. Examples of compounds of the invention (2 mg/kg of rat weight) were orally administrated to male rats (weighing 250 g to 270 g) and blood samples (0.3 ml) were taken at timed intervals. Blood samples were centrifuged and plasma was taken out. Plasma was extracted with 0.5 ml of dichloromethane. Dichloromethane layer was evaporated by nitrogen/air blowing. The residual materials were dissolved in 0.5 ml of 40% acetonitrile in 10 mM phosphate buffer (pH 7.4). Amounts of OMEPRAZOLE were determined by HPLC analysis. As a control, OMEPRAZOLE (4 mg/kg of rat weight) was orally administrated.

[5] = test system: gastric acid secretion (histamine-stimulated acid output), pylorus-ligated male rats; assay: Initial inhibition of gastric acid secretion after intraduodenal administration to pylorus-ligated rats; format: in vivo; conditions: 10 μmole/kg, after pylorus ligation, histamine 30 mg/kg s.c., acid output over four hours, rat
Method: Histamine (30 mg/kg) was subcutaneously injected to stimulate acid production. The abdomen was surgically closed immediately. Four hours later the esophagus was ligated and the stomach was removed. Acid output was measured as described above.

[6] = test system: gastric acid secretion of the conscious male rat; assay: Inhibitory effect on gastric acid secretion of the conscious male rat at timed intervals after oral administration; format: in vivo; conditions: between 5.5-8.5 hours after oral administration; 10 μmole/kg; histamine and carbachol stimulated; male rat
[7] = after 5.75 hr hydrolysis at pH 7.4, 10 μM

Row | Relative concentration of OMEPRAZOLE released in the plasma ([4]; 20 min after oral administration) [arbitrary unit] | Relative concentration of OMEPRAZOLE released in the plasma ([4]; 40 min after oral administration) [arbitrary unit] | Relative concentration of OMEPRAZOLE released in the plasma ([4]; 60 min after oral administration) [arbitrary unit] | Relative concentration of OMEPRAZOLE released in the plasma ([4]; 80 min after oral administration) [arbitrary unit] | time until OMEPRAZOLE has completely disappeared from the plasma ([4]; administrated to male rat (control)) [h] | inhibition at 10 µM [2, 7] [%] | Compound | solubility in aqueous buffer (comparison) [1] | inhibition of enzyme activity after 80 minutes ([2]; 10 μM) [%] | inhibition of enzyme activity after 80 minutes ([2]; 50 μM) [%] | inhibition of gastric H,K-ATPase activity after 5.75 hr hydrolysis [2, 7] | inhibition of gastric H,K-ATPase activity after 5.75 hr hydrolysis ([2]; after 5.75 hr hydrolysis at pH 7.4, 10 μM, listed as 1-benzenesulfonyl-5-methoxy-2-[(3,5-dimethyl-4-methoxy-2-pyridyl)methylsulfinyl], 10 µM) [%] | inhibition of gastric H,K-ATPase activity initially (before hydrolysis) [2] | inhibition of gastric H,K-ATPase activity initially (before hydrolysis) ([2]; listed as 1-benzenesulfonyl-5-methoxy-2-[(3,5-dimethyl-4-methoxy-2-pyridyl)methylsulfinyl]) | compound still present intact (without decomposition) [3] | inhibition of histamine-stimulated acid output [5] [%] | % inhibition of gastric acid secretion [6]
1 |  |  |  |  |  |  | 1-Benzenesulfonyl-5-methoxy-2-[(3,5-dimethyl-4-methoxy-2-pyridyl)methylsulfinyl]-1H-benzimidazole and 1-Benzensulfonyl-6-methoxy-2-[(3,5-dimethyl-4-methoxy-2-pyridyl)methylsulfinyl]-1H-benzimidazole [Example 1] | slightly higher solubility in aqueous buffer than the compound of Example 19 | 10 | 50 | the same level of inhibition | 91 | failed to inhibit enzyme activity | did not inhibit | Approximately 90% |  | 
2 | 28 | 4 | 2 | 1 | ≤ 1.5 | 91 | COc1ccc2[nH]c([S+]([O-])Cc3ncc(C)c(OC)c3C)nc2c1 (centres unmarked) [OMEPRAZOLE, 5-methoxy-2-[(3,5-dimethyl-4-methoxy-2-pyridyl)methylsulfinyl]-1H-benzimidazole, reference compound] |  |  |  | the same level of inhibition |  |  |  |  | 54.6 | 19.6% and 19.6 ± 3.9%
